Laboratory results: PubChem BioAssay AID330 (DTP/NCI, 2004)
Where “and” joins values, the source holds several entries; their conditions need not be identical. Equal entries are not always repeated. Inconclusive results and toxic doses are left out. Square brackets hold non-standard residues; d marks the D form. Peptide text beside a SMILES is read from it. ξ: configuration not given here. ξL = CC(C)CC(N)C(=O)O

Test system: P388 leukemia ip, CD2F1 mice, survival T/C
Experiment: NCI In Vivo Anticancer Drug Screen. Data for tumor model P388 Leukemia (intraperitoneal) in CD2F1 (CDF1) mice
Conditions: endpoint: median survival time, higher = longer survival
How it was run: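 Mice carrying the transplanted tumor received test compound or vehicle. Survival was recorded in each group, and the value is the treated-group measurement divided by that of the vehicle-treated control group.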

[1] = dose: 60.0 mg/kg/injection, schedule: Q01DX005 (ip), vehicle: Klucel (hydroxypropylcellulose) (HPC)
[2] = dose: 120.0 mg/kg/injection, schedule: Q01DX005 (ip), vehicle: Klucel (hydroxypropylcellulose) (HPC)
[3] = dose: 240.0 mg/kg/injection, schedule: Q01DX005 (ip), vehicle: Klucel (hydroxypropylcellulose) (HPC)
[4] = dose: 50.0 mg/kg/injection, schedule: Q01DX005 (ip), vehicle: Klucel (hydroxypropylcellulose) (HPC)
[5] = dose: 100.0 mg/kg/injection, schedule: Q01DX005 (ip), vehicle: Klucel (hydroxypropylcellulose) (HPC)
[6] = dose: 200.0 mg/kg/injection, schedule: Q01DX005 (ip), vehicle: Klucel (hydroxypropylcellulose) (HPC)
[7] = dose: 100.0 mg/kg/injection, schedule: Q01DX001 (ip), vehicle: saline with Tween-80
[8] = dose: 200.0 mg/kg/injection, schedule: Q01DX001 (ip), vehicle: saline with Tween-80
[9] = dose: 12.5 mg/kg/injection, schedule: Q01DX009 (ip), vehicle: saline
[10] = dose: 25.0 mg/kg/injection, schedule: Q01DX009 (ip), vehicle: saline
[11] = dose: 50.0 mg/kg/injection, schedule: Q01DX009 (ip), vehicle: saline
[12] = dose: 100.0 mg/kg/injection, schedule: Q04DX003 (ip), vehicle: Klucel (hydroxypropylcellulose) (HPC)
[13] = dose: 25.0 mg/kg/injection, schedule: Q01DX005 (ip), vehicle: saline with Tween-80
[14] = dose: 50.0 mg/kg/injection, schedule: Q01DX005 (ip), vehicle: saline with Tween-80
[15] = dose: 100.0 mg/kg/injection, schedule: Q01DX005 (ip), vehicle: saline with Tween-80
[16] = dose: 200.0 mg/kg/injection, schedule: Q01DX005 (ip), vehicle: saline with Tween-80
[17] = dose: 25.0 mg/kg/injection, schedule: Q01DX009 (ip), vehicle: saline with Tween-80
[18] = dose: 50.0 mg/kg/injection, schedule: Q01DX009 (ip), vehicle: saline with Tween-80

## Fc1cccc(Cl)c1C(Nc1nc2ccccc2s1)Nc1nc2ccccc2s1
[1]
  T/C: 98 % of control
[2]
  T/C: 101 % of control
[3]
  T/C: 95 % of control

## Cc1ccc(S(=O)(=O)CCC(=O)c2ccc([N+](=O)[O-])cc2)cc1
[4]
  T/C: 96 % of control
[5]
  T/C: 96 % of control
[6]
  T/C: 96 % of control

## CC(C)CC(NC(=O)CN)C(=O)NCC(=O)NCC(=O)O (centres undefined) (H-G[ξL]GG-OH)
[4]
  T/C: 100 % of control
[5]
  T/C: 102 % of control
[6]
  T/C: 95 % of control

## COc1cc2cc(-c3ccc(OC(C)C)c(OC)c3)[n+](C)cc2cc1OC
[7]
  T/C: 100 % of control
[8]
  T/C: 94 % of control

## O=C(O)Cc1c(-c2noc(-c3ccccc3)c2CC(=O)O)noc1-c1ccccc1
dose: 60.0 mg/kg/injection, schedule: Q01DX005 (ip), vehicle: saline with Tween-80
  T/C: 99 % of control
dose: 120.0 mg/kg/injection, schedule: Q01DX005 (ip), vehicle: saline with Tween-80
  T/C: 103 % of control
dose: 240.0 mg/kg/injection, schedule: Q01DX005 (ip), vehicle: saline with Tween-80
  T/C: 108 % of control

## CN(C)CC(CN(C)C)C(=O)/C=C/c1ccccc1
dose: 1.56 mg/kg/injection, schedule: Q01DX005 (ip), vehicle: saline
  T/C: 99 % of control
dose: 3.12 mg/kg/injection, schedule: Q01DX005 (ip), vehicle: saline
  T/C: 107 % of control

## COC(=O)c1nc(=S)[nH]c(C(=O)OC)c1C(=O)c1ccc(Cl)c(Cl)c1
[1]
  T/C: 89 % of control
[2]
  T/C: 92 % of control
[3]
  T/C: 95 % of control

## CSc1nc2cc(Cl)ccc2c2c1C=NCCN2
dose: 12.5 mg/kg/injection, schedule: Q04DX003 (ip), vehicle: saline
  T/C: 97 % of control
dose: 25.0 mg/kg/injection, schedule: Q04DX003 (ip), vehicle: saline
  T/C: 96 % of control
dose: 50.0 mg/kg/injection, schedule: Q04DX003 (ip), vehicle: saline
  T/C: 103 % of control
dose: 50.0 mg/kg/injection, schedule: Q04DX003 (ip), vehicle: suspension in saline
  T/C: 103 % of control

## O=N[O-].[Co].[NH2-].[NH2-].[NH2-].[NH2-].[NH2-]
[9]
  T/C: 90 % of control
[10]
  T/C: 95 % of control
[11]
  T/C: 95 % of control

## CC1(C)NN=C(SCc2ccccc2)NC1=O
[12]
  T/C: 98 % of control
dose: 200.0 mg/kg/injection, schedule: Q04DX003 (ip), vehicle: Klucel (hydroxypropylcellulose) (HPC)
  T/C: 100 % of control
dose: 400.0 mg/kg/injection, schedule: Q04DX003 (ip), vehicle: Klucel (hydroxypropylcellulose) (HPC)
  T/C: 92 % of control

## CCN(CCCl)/N=N/c1nc2c([nH]1)c(=O)n(C)c(=O)n2C
dose: 50.0 mg/kg/injection, schedule: Q01DX005 (ip), vehicle: saline
  T/C: 100 % of control
dose: 100.0 mg/kg/injection, schedule: Q01DX005 (ip), vehicle: saline
  T/C: 105 % of control
dose: 200.0 mg/kg/injection, schedule: Q01DX005 (ip), vehicle: saline
  T/C: 109 % of control

## CCC/C(=N\NC(=S)N1CCCCCC1)c1ccccn1
[13]
  T/C: 117 % of control
[14]
  T/C: 124 % of control

## C(=N\N1CCCCCC1)/c1c2ccccc2cc2ccccc12
dose: 50.0 mg/kg/injection, schedule: Q01DX005 (ip), vehicle: Klucel + Tween-80
  T/C: 89 % of control
dose: 100.0 mg/kg/injection, schedule: Q01DX005 (ip), vehicle: Klucel + Tween-80
  T/C: 90 % of control
dose: 200.0 mg/kg/injection, schedule: Q01DX005 (ip), vehicle: Klucel + Tween-80
  T/C: 92 % of control

## NC(Cc1ccccc1)C(=O)Nc1ccncc1 (centres undefined)
dose: 12.5 mg/kg/injection, schedule: Q01DX001 (ip), vehicle: saline
  T/C: 105 % of control
dose: 25.0 mg/kg/injection, schedule: Q01DX001 (ip), vehicle: saline
  T/C: 106 % of control
dose: 50.0 mg/kg/injection, schedule: Q01DX001 (ip), vehicle: saline
  T/C: 103 % of control

## O=C1O/C(=C/c2cc(Cl)c(O)c(Cl)c2)c2ccccc21
dose: 100.0 mg/kg/injection, schedule: Q04DX002 (ip), vehicle: saline
  T/C: 96 % of control
dose: 200.0 mg/kg/injection, schedule: Q04DX002 (ip), vehicle: saline
  T/C: 99 % of control
dose: 400.0 mg/kg/injection, schedule: Q04DX002 (ip), vehicle: saline
  T/C: 99 % of control

## COc1ccc(Oc2cc3c(cc2OC)CCN(C)C3)cc1
[9]
  T/C: 108 % of control
[10]
  T/C: 104 % of control
[11]
  T/C: 99 % of control and 107 % of control

## O=S1C2CCC(Cl)C1CCC2Cl (centres undefined)
dose: 0.78 mg/kg/injection, schedule: Q01DX009 (ip), vehicle: Klucel (hydroxypropylcellulose) (HPC)
  T/C: 112 % of control
dose: 1.56 mg/kg/injection, schedule: Q01DX009 (ip), vehicle: Klucel (hydroxypropylcellulose) (HPC)
  T/C: 90 % of control

## NC1(c2ccccc2)C2CC3CC(C2)CC1C3 (centres undefined)
dose: 25.0 mg/kg/injection, schedule: Q04DX003 (ip), vehicle: Klucel (hydroxypropylcellulose) (HPC)
  T/C: 101 % of control
dose: 50.0 mg/kg/injection, schedule: Q04DX003 (ip), vehicle: Klucel (hydroxypropylcellulose) (HPC)
  T/C: 102 % of control
[12]
  T/C: 109 % of control

## CCN(CC)C(=O)c1ccc2c(c1OCOC)CCC2
[14]
  T/C: 107 % of control
[15]
  T/C: 97 % of control
[16]
  T/C: 92 % of control

## CC(=O)CC(=O)c1ccc(C)cc1.CC(=O)CC(=O)c1ccc(C)cc1.[Cu]
[17]
  T/C: 98 % of control
[18]
  T/C: 108 % of control and 113 % of control

## CC1CCP(c2ccccc2)C1 (centres undefined)
[7]
  T/C: 105 % of control
[8]
  T/C: 116 % of control

## COc1ccc(C(F)C(N)C#N)cc1 (centres undefined)
dose: 60.0 mg/kg/injection, schedule: Q01DX005 (ip), vehicle: saline
  T/C: 109 % of control
dose: 120.0 mg/kg/injection, schedule: Q01DX005 (ip), vehicle: saline
  T/C: 98 % of control
dose: 240.0 mg/kg/injection, schedule: Q01DX005 (ip), vehicle: saline
  T/C: 107 % of control

## COC(=O)/N=C/CCC(O)NC(=O)OC (centres undefined)
[14]
  T/C: 98 % of control
[15]
  T/C: 101 % of control
[16]
  T/C: 92 % of control

## CCOC(=O)NOCOC
[11]
  T/C: 115 % of control
dose: 100.0 mg/kg/injection, schedule: Q01DX009 (ip), vehicle: saline
  T/C: 114 % of control
dose: 200.0 mg/kg/injection, schedule: Q01DX009 (ip), vehicle: saline
  T/C: 109 % of control

## N=C1/C(=C\c2ccccc2O)C(=O)NN1C(=O)c1ccncc1
dose: 100.0 mg/kg/injection, schedule: Q01DX001 (ip), vehicle: saline
  T/C: 103 % of control
dose: 200.0 mg/kg/injection, schedule: Q01DX001 (ip), vehicle: saline
  T/C: 98 % of control
dose: 400.0 mg/kg/injection, schedule: Q01DX001 (ip), vehicle: saline
  T/C: 104 % of control

## CN1C(=O)Nc2ccc(Cl)cc2C1(O)c1ccccc1 (centres undefined)
[17]
  T/C: 90 % of control
[18]
  T/C: 86 % of control
dose: 100.0 mg/kg/injection, schedule: Q01DX009 (ip), vehicle: saline with Tween-80
  T/C: 92 % of control
dose: 200.0 mg/kg/injection, schedule: Q01DX009 (ip), vehicle: saline with Tween-80
  T/C: 91 % of control

## CCOC(=O)c1n[nH]c(C)c1CC(N)c1ccccc1 (centres undefined)
dose: 12.5 mg/kg/injection, schedule: Q01DX005 (ip), vehicle: saline with Tween-80
  T/C: 100 % of control
[13]
  T/C: 96 % of control

## Cc1cc(N2C(=O)CSC2=S)ccc1Cl
dose: 50.0 mg/kg/injection, schedule: Q01DX009 (ip), vehicle: suspension in saline
  T/C: 105 % of control
dose: 100.0 mg/kg/injection, schedule: Q01DX009 (ip), vehicle: suspension in saline
  T/C: 99 % of control
dose: 200.0 mg/kg/injection, schedule: Q01DX009 (ip), vehicle: suspension in saline
  T/C: 106 % of control
